Results taken from US5242783A, “Photographic material and process” (Eastman Kodak Company, priority 1992, dated 1993).

Test: Deblocking of ester in pH 10.0 carbonate buffer with hydroxylamine (A+C), reaction half-life and rate enhancement
Format: physicochemical
Details: for reactivity with hydroxylamine vs comparisons: from Table I; for Ratio of the A+B half-life to the A+C half-life (rate enhancement): pH 10.0, 25° C.
Description: Model studies were conducted on esters E-1 through E-6 to determine the possible rate enhancement which could be attained by using a dinucleophile rather than a mononucleophile to promote the removal from a phenolic moiety of a blocking group of this invention. Aqueous solutions A, B, and C, each containing 50% by volume of acetonitrile were prepared as follows (a separate solution A for each ester):
Solution A: 2.5 × 10^-4 M ester (or 2.5 × 10^-5 M E-
Solution B: 25% by volume carbonate buffer
(pH 10.0, ionic strength 0.75);
Solution C: Solution B with added 0.05M
Then equal volumes of A and B (or A and C) were mixed at 25° C. to give a pH 10.0 solution and the reaction was followed by spectrophotometric measurements of the phenol (290 nm) or p-nitrophenol (402 nm) produced with time. In each case a reaction half-life (t1/2) was calculated from the equation t/1/2 =1n(2)/k, where 1n(2) is the natural logarithm of 2 and k is the pseudo first-order rate constant calculated for the reaction. Smaller half-lives thus indicate more rapid reactions. The A+B combination provides an alkaline solution in which the main reactant is hydroxide ion (a mononucleophile) while in the A.C combination the active reactant is hydroxylamine (a dinucleophile). A ratio of the A+B half-life to the A+C half-life provides a measure of rate enhancement due to participation of hydroxylamine in the deblocking reaction.

Ratio of the A+B half-life to the A+C half-life (rate enhancement)	SMILES	reactivity with hydroxylamine vs comparisons
3.8 × 10^4	CN(C(=O)N1CCC(=O)C(C)(C(=O)Oc2ccc([N+](=O)[O-])cc2)C1)c1ccccc1 (centres unmarked) [Example E-1]	much more reactive with the dinucleophile hydroxylamine than are the comparisons
2.9 × 10^4	COc1ccc(C(=O)N2CCC(=O)C(C)(C(=O)Oc3ccc([N+](=O)[O-])cc3)C2)cc1 (centres unmarked) [Example E-2]	much more reactive with the dinucleophile hydroxylamine than are the comparisons
2.3 × 10^5	CC1(C(=O)Oc2ccc([N+](=O)[O-])cc2)CCCCC1=O (centres unmarked) [Example E-4, reference compound]	
3.7 × 10^4	CC(=O)C(C)(C)C(=O)Oc1ccccc1 [Example E-5, reference compound]	
1.7 × 10^2	CC(=O)CC(C)(C)C(=O)Oc1ccccc1 [Example E-6, reference compound]	

SMILES	Ratio of the A+B half-life to the A+C half-life (rate enhancement)	reactivity with hydroxylamine vs comparisons
CC1(C(=O)Oc2ccc([N+](=O)[O-])cc2)CN(C(=O)OCc2ccc([N+](=O)[O-])cc2)CCC1=O (centres unmarked) [Example E-3]	3.6 × 10^4	
